# Data as given in ChEMBL document CHEMBL5137022, “Antitumor Activity of Rutaecarpine in Human Colorectal Cancer Cells by Suppression of Wnt/β-Catenin Signaling” (J Nat Prod, 2022).
# Activity calls are given as the source filed them. No cut-off for these calls is given here.
# Columns and labels:
# [1] = Inhibition of Wnt/beta-catenin transactivation signalling in HEK293 cells transfected with renilla luciferase and TOPFlash reporter gene incubated for 24 hrs by dual-luciferase assay; assay type: cell-based; conditions: Homo sapiens, HEK293, 24 h
# LS174T [2] = test: Induction of cell cycle arrest in human LS174T cells assessed as upregulation of p21 expression measured after 24 hrs by Western blot analysis; assay type: functional, cell-based; conditions: dose 5-20 µM, DDE = dose-dependent effect
# LS174T [3] = test: Induction of cell cycle arrest in human LS174T cells assessed as accumulation of cells at G2/M phase at 20 uM measured at 24 hrs by RNase A/propidium iodide staining based flow cytometric analysis (reference value: 12.9 %); assay type: functional
# Mus musculus [4] = test: Downregulation of cyclin D1 expression in tumor of BALB/c mouse xenografted with human LS174T cells at 10 to 30 mg/kg, ip administered 3 times per week for 21 days by immunohistochemical based analysis; assay type: functional, organism-based; conditions: dose 10-30 mg/kg, time 21.0 day
# LS174T [5] = test: Inhibition of Wnt/beta-catenin transactivation signalling in human LS174T cells transfected with renilla luciferase and TOPFlash reporter gene incubated for 24 hrs by dual-luciferase assay; assay type: cell-based; conditions: dose 2.5-20 µM, DDE = dose-dependent effect
# LS174T [6] = test: Inhibition of cell invasion in human LS174T cells incubated for 24 hrs by transwell assay; assay type: functional, cell-based; conditions: dose 2-8 µM, DDE = dose-dependent effect
# Mus musculus [7] = test: Downregulation of cyclin-D1 expression in tumor of BALB/c mouse xenografted with human LS174T cells at 10 to 30 mg/kg, ip administered 3 times per week for 21 days by Western blot analysis; assay type: functional, organism-based; conditions: dose 10-30 mg/kg, time 21.0 day
# LS174T [8] = test: Induction of apoptosis in human LS174T cells assessed as increase in early apoptotic cells at 20 to 40 uM measured after 48 hrs by AnnexinV-FITC/PI staining based flowcytometry analysis; assay type: functional, cell-based; conditions: dose 20-40 µM
# LS174T [9] = test: Induction of cell cycle arrest in human LS174T cells assessed as downregulation of CDK4 expression measured after 24 hrs by Western blot analysis; assay type: functional, cell-based; conditions: dose 5-20 µM, DDE = dose-dependent effect
# LS174T [10] = test: Induction of apoptosis in human LS174T cells assessed as downregulation of survivin expression measured after 48 hrs by Western blot analysis; assay type: functional, cell-based; conditions: dose 20-40 µM, DDE = dose-dependent effect
# LS174T [11] = test: Induction of cell cycle arrest in human LS174T cells assessed as accumulation of cells at S phase at 10 uM measured after 24 hrs by RNase A/propidium iodide staining based flow cytometric analysis (reference value: 14.5 %); assay type: functional
# LS174T [12] = test: Downregulation of c-Myc expression in human LS174T cells at 2.5 to 20 uM incubated for 24 hrs by Western blot analysis; assay type: functional, cell-based; conditions: dose 2.5-20 µM
# LS174T [13] = test: Induction of cell cycle arrest in human LS174T cells assessed as accumulation of cells at G2/M phase at 5 uM measured after 24 hrs by RNase A/propidium iodide staining based flow cytometric analysis (reference value: 12.2 %); assay type: functional
# LS174T [14] = test: Induction of cell cycle arrest in human LS174T cells assessed as accumulation of cells at G0/G1 phase at 20 uM measured at 36 hrs by RNase A/propidium iodide staining based flow cytometric analysis (reference value: 74.8 %); assay type: functional
# LS174T [15] = test: Induction of apoptosis in human LS174T cells assessed as increase in late apoptotic cells at 20 to 40 uM measured after 48 hrs by AnnexinV-FITC/PI staining based flowcytometry analysis; assay type: functional, cell-based; conditions: dose 20-40 µM
# LS174T [16] = test: Induction of cell cycle arrest in human LS174T cells assessed as accumulation of cells […] at 20 uM measured after 24 hrs by RNase A/propidium iodide staining based flow cytometric analysis (reference value: 1.3 %); assay type: functional
# LS174T [17] = test: Induction of cell cycle arrest in human LS174T cells assessed as accumulation of cells at sub-G1 phase at 20 uM measured at 48 hrs by RNase A/propidium iodide staining based flow cytometric analysis (reference value: 0.7 %); assay type: functional
# LS174T [18] = test: Induction of cell cycle arrest in human LS174T cells assessed as accumulation of cells at sub-G1 phase at 5 uM measured after 24 hrs by RNase A/propidium iodide staining based flow cytometric analysis (reference value: 1.3 %); assay type: functional
# LS174T [19] = test: Induction of cell cycle arrest in human LS174T cells assessed as accumulation of cells at G2/M phase at 20 uM measured at 48 hrs by RNase A/propidium iodide staining based flow cytometric analysis (reference value: 12.9 %); assay type: functional
# LS174T [20] = test: Induction of cell cycle arrest in human LS174T cells assessed as accumulation of cells at sub-G1 phase at 10 uM measured after 24 hrs by RNase A/propidium iodide staining based flow cytometric analysis (reference value: 1.3 %); assay type: functional
# LS174T [21] = test: Antitumor activity against human LS174T cells xenografted in BALB/c nude mouse assessed as reduction in tumor volume at 30 mg/kg, ip administered 3 times per week for 21 days by electronic caliper method; assay type: functional; set-up: scale not given: the % may be the effect or the level left; conditions: time 21 day
# LS174T [22] = test: Antitumor activity against human LS174T cells xenografted in BALB/c nude mouse assessed as reduction in tumor volume at 10 mg/kg, ip administered 3 times per week for 21 days by electronic caliper method; assay type: functional; set-up: scale not given: the % may be the effect or the level left; conditions: time 21 day
# LS174T [23] = test: Induction of cell cycle arrest in human LS174T cells assessed as accumulation of cells at G0/G1 phase at 20 uM measured at 24 hrs by RNase A/propidium iodide staining based flow cytometric analysis (reference value: 74.8 %); assay type: functional
# LS174T [24] = test: Induction of cell cycle arrest in human LS174T cells assessed as accumulation of cells at S phase at 5 uM measured after 24 hrs by RNase A/propidium iodide staining based flow cytometric analysis (reference value: 14.5 %); assay type: functional
# HCT-15 = test: Antiproliferative activity against human HCT-15 cells harboring wild type beta-catenin assessed as reduction in cell viability measured after 72 hrs by SRB assay; assay type: functional, cell-based; conditions: HCT-15, 72 h
# LS174T [25] = test: Induction of cell cycle arrest in human LS174T cells assessed as downregulation of cyclin D1 expression measured after 24 hrs by Western blot analysis; assay type: functional, cell-based; conditions: dose 5-20 µM, DDE = dose-dependent effect
# LS174T [26] = test: Antiproliferative activity against human LS174T cells harboring beta-catenin mutant assessed as reduction in cell viability measured after 72 hrs by SRB assay; assay type: functional, cell-based
# LS174T [27] = test: Downregulation of MMP-7 expression in human LS174T cells at up to 8 uM incubated for 24 hrs by Western blot analysis; assay type: functional, cell-based
# LS174T [28] = test: Induction of cell cycle arrest in human LS174T cells assessed as accumulation of cells at S phase at 20 uM measured at 12 hrs by RNase A/propidium iodide staining based flow cytometric analysis (reference value: 11.4 %); assay type: functional
# RKO = test: Antiproliferative activity against human RKO cells harboring wild type beta-catenin assessed as reduction in cell viability measured after 72 hrs by SRB assay; assay type: functional, cell-based
# LS174T [29] = test: Induction of apoptosis in human LS174T cells assessed as upregulation of cleaved caspase-3 expression measured after 48 hrs by Western blot analysis; assay type: functional, cell-based; conditions: dose 20-40 µM, DDE = dose-dependent effect
# LS174T [30] = test: Induction of cell cycle arrest in human LS174T cells assessed as accumulation of cells at G0/G1 phase at 10 uM measured after 24 hrs by RNase A/propidium iodide staining based flow cytometric analysis (reference value: 71.7 %); assay type: functional
# Mus musculus [31] = test: Downregulation of c-Myc expression in tumor of BALB/c mouse xenografted with human LS174T cells at 10 to 30 mg/kg, ip administered 3 times per week for 21 days by immunohistochemical based analysis; assay type: functional, organism-based; conditions: dose 10-30 mg/kg, time 21.0 day
structure (smiles),measurement,setting,value
O=c1c2ccccc2nc2n1CCc1c-2[nH]c2ccccc12 [RUTAECARPINE],IC50,[1],4.3 µM
same,Activity,LS174T [2],Dde
same,Activity,LS174T [3],5.6%
same,Activity,Mus musculus [4],Active
same,inhibition,LS174T [5],Dde
same,inhibition,LS174T [6],Dde
same,Activity,Mus musculus [7],Active
same,Activity,LS174T [8],Active
same,Activity,LS174T [9],Dde
same,Activity,LS174T [10],Dde
same,Activity,LS174T [11],7.2%
same,Activity,LS174T [12],Active
same,Activity,LS174T [13],11.8%
same,Activity,LS174T [14],87.4%
same,Activity,LS174T [15],Active
same,Activity,LS174T [16],1.5%
same,Activity,LS174T [17],13.9%
same,Activity,LS174T [18],1.4%
same,Activity,LS174T [19],4.4%
same,Activity,LS174T [20],1.3%
same,Activity,LS174T [21],54.6%
same,Activity,LS174T [22],25.9%
same,Activity,LS174T [23],89.5%
same,Activity,LS174T [24],10.7%
same,IC50,HCT-15,> 50 µM
same,Activity,LS174T [25],Dde
same,IC50,LS174T [26],6.1 µM
same,Activity,LS174T [27],Active
same,Activity,LS174T [28],2.4%
same,IC50,RKO,> 50 µM
same,Activity,LS174T [29],Dde
same,Activity,LS174T [30],81.6%
same,Activity,Mus musculus [31],Active
